Experiment [1] relates to primary T-cell derived WITO HIV interaction with human rI-domain. In words: SPR 1:1 competition assay, WITO HIV binding to rI-domain. The conditions noted are these: for % inhibition: 1:1 competition, 1 μM, 1 µM. The method, then:
For competition analysis SPR of the HIV interaction with human rI-domain, primary T-cell derived WITO HIV was immobilized on a Cl sensor chip surface. Human rI-domain, drug or drug and human rI-domain were flowed at 1 μM over the immobilized HIV and the response units of the interactions were recorded. Any drug that could not compete with the virus or pilin binding to the rI-domain was also discarded. Remaining drugs were evaluated for known safety in humans and known therapeutic concentrations to determine if the drug would be tested, and at what concentrations, in in vitro cell models. All SPR sensorgrams and results plots were analyzed with Biacore S200 Evaluation Software (GE Healthcare Life Sciences).

Experiment [2] concerns N. gonorrhoeae in infected PEX cells. In words: Survival assay of N. gonorrhoeae in infected PEX cells. In kind it is cell-based, Neisseria gonorrhoeae. From the text: N. gonorrhoeae strains used in survival assays included MS11 Schoolnik et al (1984, supra), Segal et al (1985, supra) and 1291 Apicella et al (1974, J. Infect Dis. 130(6):619-25), Dudas and Apicella (1988, Infect Immun. 56(2):499-504), which are commonly used to study gonococcal pathogenesis. Also examined were a panel of low-passage clinical isolates (FIG. 14; i.e., N. gonorrhoeae strains LT38097, UT38885, PID-26, and SK92-679). Strains 1291 and LT38097 are male urethral isolates; strains MS11 and UT38885 were obtained from women with uncomplicated gonococcal cervicitis, strain PID-26 was obtained from a patient with pelvic inflammatory disease; and strain SK92-679 is a blood isolate from a patient with disseminated infection. Antibiotic-resistant N. gonorrhoeae strains tested were obtained from Public Health England and comprised WHO-L, WHO-M, WHO-X (H041), WHO-Y (F89), and WHO-Z (A8806), see FIG. 15. For use, bacteria were harvested from overnight (37° C., 5% CO2), GC-IsoVitaleX agar plate cultures and enumerated spectrophotometrically, as previously described Edwards et al (2000, Infect Immun 68(9):5354-63). Infection studies were performed using a multiplicity of infection of 100 Edwards et al (2000, Infect Immun 68(9):5354-63).
PEX cells were challenged with the noted N. gonorrhoeae strains for 90 min. For single dose survival assays, the infection medium was then removed, cells were rinsed thrice, and fresh medium containing 1% DMSO (vehicle control), carbamazepine ([…], as noted), or ceftriaxone (0.1 μg/mL or 0.5 μg/mL, positive control) was added. Infections were then allowed to proceed for an additional 24 h or 48 h. At the indicated times post-treatment, the infection medium was removed, the PEX cell monolayers were rinsed thrice, lysed, and viable N. gonorrhoeae were enumerated by counting colony forming units after plating serial dilutions of the PEX cell lysates (for example see 12). In some experiments (i.e., two dose survival assays for example see FIG. 13), a second dose of carbamazepine was added at 24 hours-post addition of the first carbamazepine dose. Infections were then allowed to proceed for an additional 24 h before plating the PEX cell lysate, as above. For either assay, the percentage of N. gonorrhoeae that survived carbamazepine or antibiotic treatment was determined as a function of bacteria that survived DMSO (vehicle control) treatment (set to 100%). […] To investigate whether the small percentage of the surviving bacterial cells have developed resistance to the treatment, sequential infection assays were conducted. Bacteria were harvested from the CFU count plates and then used to inoculate a new assay. […] All assays were performed in triplicate on 3 separate occasions with the noted bacterial strains. A Kruskal-Wallis k-sample analysis of variance was used to determine the statistical significance of bacterial survival.
The ability of a single dose of methyldopa was evaluated to inhibit survival of low-passage N. gonorrhoeae isolates in PEX cells challenged with those isolates. To establish infection, PEX cells were challenged with N. gonorrhoeae for 90 min using the noted low-passage isolates. Infections were then allowed to proceed for an additional 24 h or 48 h in the presence or absence of DMSO (1%, vehicle control), methyldopa (10 μM, Md), or ceftriaxone (0.5 μg/mL, positive control, Cfx).

Regarding `NC(=O)N1c2ccccc2C=Cc2ccccc21` [carbamazepine, 5H-dibenzo[b,f]azepine-5-carboxamide], the results for the “% inhibition” value in experiment [1] (listed as CARBAMAZEPINE) and in experiment [1] (listed as Carbamazepine) were 97.09% and roughly 97%, respectively. Besides, in experiment [1] (direct competition SPR), the “Block HIV in SPR” value is recorded as “Yes”. Moreover, the “Drug RU” value in experiment [1] (drug alone flowed at 1 μM over immobilized WITO HIV) was 0.227 RU. Besides, in experiment [1] (drug and human rI-domain flowed at 1 μM, 1:1), the “Pilin + Drug RU” value was found to be 1.772 RU. Further, the killing of gonococci entry in experiment [2] (by 24 hours, concentrations of 10 μM or higher) was “greater than 99.95%”. The gonococcal killing entry in experiment [2] (low-passage isolates, 24 h, 10 μM single dose) is “Greater than 99%”; in experiment [2] (multidrug-resistant strains, 24 h, 10 μM single dose) it was “Greater than 99%”; in experiment [2] (strain MS11, by 24 h, single 100 nM dose) it was “Greater than 99%”; in experiment [2] (strain MS11, by 48 h, 2 100 nM doses applied 24 h apart) it was “greater than 99.95%”; in experiment [2] (strain MS11, concentrations greater than or equal to 10 nM, 24 h or 48 h) it was “Greater than 98%”; in experiment [2] (strain MS11, sequential infection, following the second infection, 10 μM, 24 h), 100%.

One may read the % inhibition as the percentage by which the read-out fell short of the control. A higher % inhibition goes with strong suppression.

The values above are taken from US12564596B2, “Agents and methods for modulating pathogen activity” (Griffith University, priority 2018, dated 2026).
